Assay [1] relates to Calu-6 subcutaneous xenografts. Description: subcutaneous Calu-6 xenograft with fractionated radiation (4 × 5 Gy). In kind it is in vivo, mouse. The settings on record: 30 mg/kg oral 30 min before and 5 h after each of 4 × 5 Gy; CD-1 nude mice. Here is the method: To examine the effect of NU5455 treatment on efficacy versus a late radiation toxicity, a total dose of 20 Gy of thoracic radiation was administered either to CD-1 nude mice bearing subcutaneous Calu-6 tumors or to non–tumor-bearing C57BL/6 mice, as four 5-Gy fractions given on days 1, 4, 7, and 10. This fractionated regimen was adapted from an existing method ([30]), resulting in focal areas of lung fibrosis at 24 weeks following treatment, but at a level that would enable any exacerbation of fibrosis to be readily detected.
Figure 5 NU5455 augments the effect of fractionated radiotherapy in Calu-6 tumors without enhancing late radiation damage to the lung. (A) Mean tumor volume of mice bearing Calu-6 subcutaneous xenografts treated with localized radiation (4 × 5 Gy on days 1, 4, 7, and 10) with either NU5455 (30 mg/kg orally) or vehicle 30 minutes before and 5 hours after each dose of IR (3–5 mice per group). The time taken to reach 2 times the tumor volume at the start of treatment (RTV2) was also assessed. […] Samples were scored using the modified Ashcroft system on a scale of 0 to 8 (5–9 mice per group). […] Statistical significance was assessed using a log-rank test (A) and 1-way ANOVA (B). *P < 0.05, **P < 0.01, ****P < 0.0001.

Assay [2] deals with HCT116 p53 null (-/-) cells. Description: caspase activity after irradiation. In kind it is cell-based, Human. The settings on record: 1 µM, 1 hour prior to 2 Gy; 72 hours. Here is the method: (§1) Supplemental Figure 19. […] Fold […]
(§2) caspase activity in HCT116 parental and p53 null (-/-) cells 72 hours following pre-treatment with NU5455 (1 µM) or DMSO for 1 hour prior to irradiation (0 or 2 Gy). Fold caspase activity was normalized to cell density determined by SRB staining. Data represent the mean ± SEM from three independent experiments. NS = not significant, **** P < 0.0001 (2-way ANOVA).

The next assay has as its system HCT116 parental cells. In words: caspase activity after irradiation. It is filed as cell-based, Human. The following applies: 1 µM, 1 hour prior to 2 Gy; 72 hours. Here is the method:
as §1, §2

For `CN(C(=O)CN1CCOCC1)c1ccc2sc3c(-c4cccc5c(=O)cc(N6CC7CCC(C6)O7)oc45)cccc3c2c1` [NU5455], the “time taken for tumors to double in volume (RTV2)” value in assay [1] is reported as “increase the time taken”. The “radiation-induced apoptosis (fold caspase activity)” value (in assay [2]; in the assay on HCT116 parental cells) was “increases radiation-induced apoptosis” each time.
